How the values were obtained:
ob/ob mice = ob/ob mice first study: topiramate in food for 120 days; plasma glucose, insulin, triglycerides, body weight; format: in vivo; conditions: for Blood concentration Glucose / Blood concentration Insulin / Blood concentration Triglycerides: mean ± SEM, N 10
Source text: It is known that ob/ob mice when allowed to eat ad libitum, develop abnormally high blood levels of insulin (hyperinsulinemia), glucose (hyperglycemia), lesions of the skin, and a high level of glycosylated hemoglobin, all of which are hallmark signs of Type II diabetes mellitus (R. R. HENRY, Ann. Intern. Med. 1996, 124, 97–103; G. W. EDELSON, Clin. Podiatr. Med. Surg. 1998, 15, 41–48; P. R. JOHNSON, M. R. GREENWOOD, B. A. HORWITZ and J. S. STERN, Annu. Rev. Nutr. 1991, 11, 325–353). Based on this knowledge of the ob/ob mouse model, two studies were designed to determine the effect of compounds of formula (I) in these mice models.
In the first study, a uniform population of mice was divided into three groups; in one group of control mice no topiramate was added to the food for the entire 120-day study period. In a second group topiramate was added to the food in amounts sufficient to give a daily dose of 20 mg/kg for 84 days, then a daily dose of 180 mg/kg for 36 days. A third group received a daily dose of 60 mg/kg for the entire 120 days. After completion of the 120-day period, the mice were sacrificed and blood was obtained and prepared for subsequent analyses of glucose, insulin and triglycerides in plasma.

male mice (ob/ob) = assay: Old male ob/ob mice: topiramate in food for 110 days; body weight, HbA1C, glucose, triglycerides, insulin, skin lesions; format: in vivo; conditions: for BG / BW / HbA1c / Insulin / Triglycerides: 110 days; for initial total incidence of skin lesions: when the study initiated (before dosing)
Protocol: Five- to seven-week old male mice (ob/ob) were purchased from The Jackson Laboratory (Bar Harbor, Me.). Upon arrival the mice were quarantined for five days and housed individually in wire mesh cages with 2-inch square “nestlets”. The mice were maintained at an ambient temperature of 21 to 23° C. on a 12 hour-12 hour light-dark schedule and given access to water and powdered chow ad libitum.
Topiramate was administered orally as a trace constituent in the food (0.143 to 2.54 mg/g). A precise quantity of topiramate was mixed thoroughly into a known amount of powdered lab chow using a mortar and pestle to grind the drug into the chow, after which the contents were placed in a 165 ounce lidded polyethylene tub and blended by shaking and rotating the tub. The lab chow (5002M Certified Diet Meal, manufactured in Brentwood, Mo. by Purina Mills, Inc.) was not less than 20% protein, 4.5% fat, and 64.5% CHO. The quantity of topiramate added to the food was based on the consumption of chow recorded during the previous three- or four-day period. The powdered food was put into stainless steel/aluminum feeders designed to prevent the mice from dispersing, spilling or contaminating the food. Mice that were able to disperse or soil the food were excluded from the study.
Thirty two-week old mice were randomly divided into three groups: (1) a control group in which no topiramate was added to the food, and (2) a group in which topiramate was added to the food in amounts sufficient to give a daily dose of 20 mg/kg for the entire 110-day dosing period, and (3) a group in which topiramate was added to the food in amounts sufficient to give a daily dose of 60 mg/kg for the entire dosing period.
The animals in each group were monitored for body weight, food consumption, blood glucose, HbA1C, insulin, triglycerides and physical signs of Type II diabetes mellitus or poor health. Body weight and food consumption were recorded twice-weekly on a Monday/Thursday or Tuesday/Friday schedule 8 to 12 hours into the light portion of the light-dark cycle. Body weight and food consumption were recorded using a scale designed for weights under 200 g. […] The mice were checked for skin lesions, and if present, the degree of severity was noted and recorded. If the general health of a mouse had deteriorated to a degree considered life threatening the mouse was euthanized.
Mice were allowed access to food containing topiramate until a few hours before being sacrificed by decapitation. Blood was collected from the neck wound into a parafilm-lined funnel. The blood was then transferred into beakers containing heparin. Plasma was separated from red blood cells by centrifugation. The plasma was frozen for subsequent analyses. Blood glucose levels, insulin and triglycerides were quantitated in the plasma. Glycated hemoglobin was also measured. The glycated hemoglobin required a 50 μl sample of whole blood, which was removed from the funnel before centrifugation. The plasma samples were then collected without freezing. All samples were packed in ice and shipped on the day blood was collected for overnight delivery to AniLytics, Inc. (200 Girard St., Suite 200, Gaithersburg, Md. 20877). The samples analyzed by AniLytics were assayed using standard procedures established by commercial laboratories that perform blood chemistry analyses. Statistical analysis was performed to determine if the data passed a test for normality (fit a Gaussian distribution). […] The data for a group of TPM-treated mice were compared to the control group.
Following the above described procedure, the effect of topiramate (TPM) on body weight (BW), glycated hemoglobin (HbA1C), blood glucose levels (BG), triglyceride and insulin levels in male ob/ob mice, were determined, with results as listed in Table 11. The abbreviation N represents the number of animals per group.

[1] = tested on: animal model of kindled epilepsy; conditions: cited from earlier work
[2] = TPM 1: 20 mg/kg/day 84 days then 180 mg/kg/day 36 days in food
[3] = TPM 2: 60 mg/kg/day 120 days in food

## CC1(C)O[C@@H]2[C@@H](CO[C@@]3(COS(N)(=O)=O)OC(C)(C)O[C@@H]23)O1 [Topiramate, 2,3:4,5-bis-O-(1-methylethylidene)-β-D-fructopyranose sulfamate]
ob/ob mice; [2]
  Glucose percentage difference versus control: −39%
  Insulin percentage difference versus control: −37%
  Triglycerides percentage difference versus control: −46%
  Blood concentration Glucose: 183 ± 33 mg/dL
  Blood concentration Insulin: 6.4 ± 0.7 ng/mL
  Blood concentration Triglycerides: 103 ± 5 mg/dL
ob/ob mice; [3]
  Glucose percentage difference versus control: −41%
  Insulin percentage difference versus control: −21%
  Triglycerides percentage difference versus control: −41%
  Blood concentration Glucose: 179 ± 11 mg/dL
  Blood concentration Insulin: 8.0 ± 0.9 ng/mL
  Blood concentration Triglycerides: 113 ± 8 mg/dL
ob/ob mice; TPM 2 group (60 mg/kg/day), day 119
  body weight: 62.2 ± 1.2 g
ob/ob mice; TPM 2 group (60 mg/kg/day), day −1 (beginning of administration)
  body weight: 48.4 ± 0.9 g
ob/ob mice; TPM 2 group (60 mg/kg/day), day −1 to day 119
  Body weight gain compared with control: Body weight gain for the control and TPM 2 groups from day −1 to day 119 was also similar.
Male mice (ob/ob); 20 mg/kg daily in food, n = 6
  BG: 229.2 ± 46.0 mg/dL
  BW: 65.6 ± 2.8 g
  HbA1c: 4.98 ± 0.6%
  Insulin: 12.2 ± 1.9 ng/mL
  Triglycerides: 104 ± 6.4 mg/dL
Male mice (ob/ob); 20 mg/kg group
  initial total incidence of skin lesions: 38%
Male mice (ob/ob); 20 mg/kg, first 60 days of dosing
  mice died or had to be euthanized: four
Male mice (ob/ob); 60 mg/kg daily in food, n = 7
  BW: 67.5 ± 1.6 g
  HbA1c: 3.56 ± 0.4%
  Insulin: 11.4 ± 2.1 ng/mL
  Triglycerides: 88 ± 3.2 mg/dL
Male mice (ob/ob); 60 mg/kg daily in food, n = 7, P < 0.05
  BG: 144.3 ± 20.0 mg/dL
Male mice (ob/ob); 60 mg/kg group
  initial total incidence of skin lesions: 47%
Male mice (ob/ob); 60 mg/kg, first 60 days of dosing
  mice died: Two
Male mice (ob/ob); 60 mg/kg/day, dosing period between 62 and 110 days
  total incidence of lesions versus control: lower than in the control group
[1]
  seizure block: effectively block seizures
